Laboratory results from ChEMBL document CHEMBL6074678, “Selectively Antagonizing the NOD1-Mediated Inflammatory Signaling Pathway Mitigates the Gastric Inflammation Induced by Helicobacter pylori Infection” (J Med Chem, 2024).
pIC50: −log10 of the molar value.

What was measured:
[1] = target: T1, Nucleotide-binding oligomerization domain-containing protein 1 (Homo sapiens, UniProt Q9Y239); test: Antagonist activity at human NOD1 expressed in HEK-Blue cells assessed as decrease in SEAP secretion incubated for 3 hrs followed by C12-iE-DAP stimulation for 20 hrs by spectrophotometry; format: cell-based, HEK-Blue hNOD1
T1 sequence (Q9Y239 whole entry): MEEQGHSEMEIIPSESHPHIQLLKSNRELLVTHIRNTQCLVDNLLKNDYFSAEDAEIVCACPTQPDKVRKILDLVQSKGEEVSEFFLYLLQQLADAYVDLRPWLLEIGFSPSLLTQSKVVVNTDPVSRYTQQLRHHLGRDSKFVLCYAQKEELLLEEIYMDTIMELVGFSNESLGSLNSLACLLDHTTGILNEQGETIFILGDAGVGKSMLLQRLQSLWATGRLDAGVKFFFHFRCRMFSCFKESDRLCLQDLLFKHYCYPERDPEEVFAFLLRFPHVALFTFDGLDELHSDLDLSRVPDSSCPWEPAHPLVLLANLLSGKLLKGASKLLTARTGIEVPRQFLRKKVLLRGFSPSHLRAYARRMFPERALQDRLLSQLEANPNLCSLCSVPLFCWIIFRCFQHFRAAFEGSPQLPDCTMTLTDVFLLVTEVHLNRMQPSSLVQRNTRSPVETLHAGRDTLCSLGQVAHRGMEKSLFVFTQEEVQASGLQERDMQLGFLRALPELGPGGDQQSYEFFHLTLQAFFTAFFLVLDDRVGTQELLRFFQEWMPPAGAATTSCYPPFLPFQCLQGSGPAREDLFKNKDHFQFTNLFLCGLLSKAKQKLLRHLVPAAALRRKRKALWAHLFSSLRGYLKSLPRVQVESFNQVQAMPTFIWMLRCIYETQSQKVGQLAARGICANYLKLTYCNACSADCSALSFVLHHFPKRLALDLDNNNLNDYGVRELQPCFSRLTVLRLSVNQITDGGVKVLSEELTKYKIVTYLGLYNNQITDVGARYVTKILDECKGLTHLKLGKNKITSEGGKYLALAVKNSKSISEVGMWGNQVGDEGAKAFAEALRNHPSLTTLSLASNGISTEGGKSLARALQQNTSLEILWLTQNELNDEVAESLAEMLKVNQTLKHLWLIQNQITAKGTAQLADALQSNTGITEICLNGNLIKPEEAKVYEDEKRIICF

[2] = target: T2, Nucleotide-binding oligomerization domain-containing protein 1 (Mus musculus) (UniProt Q8BHB0); test: Antagonist activity at mouse NOD1 expressed in HEK-Blue cells assessed as decrease in SEAP secretion at 5 uM incubated for 3 hrs followed by C12-iE-DAP stimulation for 20 hrs by spectrophotometry relative to control; format: cell-based
T2 sequence (whole entry): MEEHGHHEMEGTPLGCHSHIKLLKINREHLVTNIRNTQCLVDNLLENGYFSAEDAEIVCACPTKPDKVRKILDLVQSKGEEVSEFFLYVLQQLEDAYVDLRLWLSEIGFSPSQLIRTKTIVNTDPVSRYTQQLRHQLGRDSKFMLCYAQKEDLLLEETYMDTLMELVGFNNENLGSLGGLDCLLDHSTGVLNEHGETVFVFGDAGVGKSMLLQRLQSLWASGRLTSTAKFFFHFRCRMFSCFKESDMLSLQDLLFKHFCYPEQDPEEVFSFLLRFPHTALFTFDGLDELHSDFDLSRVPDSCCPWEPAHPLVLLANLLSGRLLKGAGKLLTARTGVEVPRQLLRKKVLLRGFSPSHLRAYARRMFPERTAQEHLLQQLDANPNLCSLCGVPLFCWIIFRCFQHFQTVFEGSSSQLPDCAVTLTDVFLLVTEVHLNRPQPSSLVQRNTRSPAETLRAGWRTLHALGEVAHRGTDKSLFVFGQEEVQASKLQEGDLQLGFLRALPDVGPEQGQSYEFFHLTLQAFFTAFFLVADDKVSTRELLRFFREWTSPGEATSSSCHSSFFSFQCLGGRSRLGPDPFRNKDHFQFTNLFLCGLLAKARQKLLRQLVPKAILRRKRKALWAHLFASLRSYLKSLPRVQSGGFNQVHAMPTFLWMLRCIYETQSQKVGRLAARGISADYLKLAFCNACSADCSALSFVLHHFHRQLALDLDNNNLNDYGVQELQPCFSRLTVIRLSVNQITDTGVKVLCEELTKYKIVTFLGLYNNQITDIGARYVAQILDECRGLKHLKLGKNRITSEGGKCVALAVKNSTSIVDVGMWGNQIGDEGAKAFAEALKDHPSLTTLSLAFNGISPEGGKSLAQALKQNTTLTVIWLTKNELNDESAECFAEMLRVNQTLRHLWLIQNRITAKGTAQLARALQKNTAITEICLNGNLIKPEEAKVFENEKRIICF

[3] = target: T3, Nucleotide-binding oligomerization domain-containing protein 1 (Mus musculus, UniProt Q8BHB0); test: Antagonist activity at mouse NOD1 expressed in HEK-Blue cells assessed as decrease in SEAP secretion incubated for 3 hrs followed by C12-iE-DAP stimulation for 20 hrs by spectrophotometry; format: cell-based, HEK-Blue mNOD1
T3 sequence (Q8BHB0 whole entry): T2 sequence (whole entry)

[4] = target: T2, Nucleotide-binding oligomerization domain-containing protein 1 (Mus musculus); test: Antagonist activity at mouse NOD1 expressed in HEK-Blue cells assessed as decrease in SEAP secretion at 1 uM incubated for 3 hrs followed by C12-iE-DAP stimulation for 20 hrs by spectrophotometry relative to control; format: cell-based
[5] = HEK-Blue mNOD1, filed as antagonist, time 23.0 hrs

Compound	pIC50 [1]	inhibition ([2]; HEK-Blue mNOD1, time 23.0 hrs) [%]	pIC50 [3]	inhibition [4, 5] [%]	further results
O=c1c2cc(Cl)ccc2nc(NCCCN2CCOCC2)n1-c1ccc(Cl)c(NS(=O)(=O)c2ccccc2F)c1	7.49				inhibition [2, 5]: 46.5%
Nc1nc2ccc(Cl)cc2c(=O)n1-c1ccc(Cl)c(NS(=O)(=O)c2ccccc2F)c1	7.36	27.3			
Cc1noc(C)c1S(=O)(=O)Nc1cc(-n2c(Cl)nc3cnc(Cl)cc3c2=O)ccc1Cl			6.25		
NC(=O)c1nc2ccc(Cl)cc2c(=O)n1-c1ccc(Cl)c(NS(=O)(=O)c2ccccc2F)c1					inhibition [2, 5]: 48.2%
Cc1nc2ccc(Cl)cc2c(=O)n1-c1ccc(Cl)c(C(=O)N2Cc3ccccc3S2(=O)=O)c1		< 10			
O=c1c2cc(Cl)ncc2nc(Cl)n1-c1ccc(Cl)c(NS(=O)(=O)c2ccc(Cl)s2)c1			6.52	76.5	
O=c1c2cc(Cl)ncc2nc(Cl)n1-c1ccc(Cl)c(NS(=O)(=O)c2cccnc2)c1			6.42		
O=c1c2ccccc2nc(Cl)n1-c1ccc(Cl)c(NS(=O)(=O)c2ccccc2F)c1					inhibition ([4]; HEK-Blue mNOD1, time 23.0 hrs): < 10%
CCOC(=O)c1nc2ccc(Cl)cc2c(=O)n1-c1ccc(Cl)c(NS(=O)(=O)c2ccccc2F)c1		11.4			
O=c1c2cc(Cl)ccc2nc(C(F)(F)F)n1-c1ccc(Cl)c(NS(=O)(=O)c2ccccc2F)c1	7.17		5.23		inhibition [2, 5]: 73.2%
O=c1c2cc(C(F)(F)F)ccc2nc(Cl)n1-c1ccc(Cl)c(NS(=O)(=O)c2c(F)cccc2F)c1			6.39	65.3	
O=c1c2ccncc2nc(Cl)n1-c1ccc(Cl)c(NS(=O)(=O)c2ccc(F)cc2F)c1			6.71	80.5	
O=c1c2ccncc2nc(Cl)n1-c1ccc(Cl)c(NS(=O)(=O)c2ccc([N+](=O)[O-])cc2F)c1			6.88		
CC(=O)Nc1ccc(Cl)c(NS(=O)(=O)c2ccccc2F)c1		< 10			
O=c1c2cc(Cl)ncc2nc(Cl)n1-c1ccc(Cl)c(NS(=O)(=O)c2c(F)cccc2F)c1	8.89		7.17	87.5	
O=c1c2cc(Cl)ncc2nc(Cl)n1-c1ccc(Cl)c(NS(=O)(=O)c2ccccc2Cl)c1			6.55		
Cc1nc2ccc(Cl)cc2c(=O)n1-c1ccc(Cl)c(N)c1		< 10			
O=c1c2cc(-c3cccc(Cl)c3)ccc2nc(Cl)n1-c1ccc(Cl)c(NS(=O)(=O)c2ccccc2F)c1					inhibition ([4]; HEK-Blue mNOD1, time 23.0 hrs): 15.6%
O=c1c2ccncc2nc(C(F)(F)F)n1-c1ccc(Cl)c(NS(=O)(=O)c2ccccc2F)c1					inhibition ([4]; HEK-Blue mNOD1, time 23.0 hrs): 7.7%
O=c1c2cc(Cl)ccc2nc(SCCOc2ccc(F)cc2)n1-c1ccc(Cl)c(NS(=O)(=O)c2ccccc2F)c1	6.13	< 10			
COc1cc2nc(Cl)n(-c3ccc(Cl)c(NS(=O)(=O)c4ccccc4F)c3)c(=O)c2cc1Cl					inhibition ([4]; HEK-Blue mNOD1, time 23.0 hrs): 39.3%
CC(C)NC(=O)CSc1nc2ccc(Cl)cc2c(=O)n1-c1ccc(Cl)c(NS(=O)(=O)c2ccccc2F)c1	7.60	< 10			
C=CS(=O)(=O)Nc1cc(-n2c(Cl)nc3cnc(Cl)cc3c2=O)ccc1Cl			5.94	70.2	
O=c1c2cc(OC(F)(F)F)ccc2nc(Cl)n1-c1ccc(Cl)c(NS(=O)(=O)c2c(F)cccc2F)c1			5.58		inhibition ([4]; HEK-Blue mNOD1, time 23.0 hrs): 36.5%
O=c1c2cc(C(F)(F)F)ccc2nc(Cl)n1-c1ccc(Cl)c(NS(=O)(=O)c2ccccc2F)c1			6.20		

Compound	pIC50 [1]	inhibition ([2]; HEK-Blue mNOD1, time 23.0 hrs) [%]	pIC50 [3]	inhibition [4, 5] [%]	further results
O=c1c2cc(Cl)ncc2nc(Cl)n1-c1ccc(Cl)c(NS(=O)(=O)c2ccc3ncsc3c2)c1			6.88	85.7	
O=c1c2cc(Br)ccc2nc(Cl)n1-c1ccc(Cl)c(NS(=O)(=O)c2ccccc2F)c1	7.74			40.5	
O=c1c2nc(Cl)cnc2nc(Cl)n1-c1ccc(Cl)c(NS(=O)(=O)c2ccccc2F)c1			5.91		
O=c1c2ccncc2nc(C(F)F)n1-c1ccc(Cl)c(NS(=O)(=O)c2ccccc2F)c1					inhibition ([4]; HEK-Blue mNOD1, time 23.0 hrs): 19.1%
N#Cc1ccc2nc(Cl)n(-c3ccc(Cl)c(NS(=O)(=O)c4ccccc4F)c3)c(=O)c2c1	8.01		6.93	83.6	
Nc1ccc(Cl)cc1C(=O)Nc1ccc(Cl)c(NS(=O)(=O)c2ccccc2F)c1		32.9			
O=c1c2cc([N+](=O)[O-])ccc2nc(Cl)n1-c1ccc(Cl)c(NS(=O)(=O)c2ccccc2F)c1	8.04		6.07	52.1	
O=C(CSc1nc2ccc(Cl)cc2c(=O)n1-c1ccc(Cl)c(NS(=O)(=O)c2ccccc2F)c1)Nc1ccccc1	7.36	< 10			
Cn1cc(S(=O)(=O)Nc2cc(-n3c(Cl)nc4cnc(Cl)cc4c3=O)ccc2Cl)cn1	8.51		6.57	77.6	
Cc1nc2ccc(Cl)cc2c(=O)n1-c1ccc(Cl)c(S(=O)(=O)Nc2ccccc2F)c1		21.1			
N[C@@H](CCC(=O)N[C@@H](CSc1nc2cnccc2c(=O)n1-c1ccc(Cl)c(NS(=O)(=O)c2ccccc2F)c1)C(=O)NCC(=O)O)C(=O)O					inhibition ([4]; HEK-Blue mNOD1, time 23.0 hrs): -1%
CS(=O)(=O)c1ccc2nc(Cl)n(-c3ccc(Cl)c(NS(=O)(=O)c4ccccc4F)c3)c(=O)c2c1	8.36		6.96	88.9	
O=c1c2cc(Cl)ncc2nc(Cl)n1-c1ccc(Cl)c(NS(=O)(=O)N2CCCCC2)c1	6.90				inhibition ([4]; HEK-Blue mNOD1, time 23.0 hrs): 28.7%
COc1ccc2nc(Cl)n(-c3ccc(Cl)c(NS(=O)(=O)c4ccccc4F)c3)c(=O)c2c1					inhibition ([4]; HEK-Blue mNOD1, time 23.0 hrs): < 10%
N#Cc1ccccc1S(=O)(=O)Nc1cc(-n2c(Cl)nc3cnc(Cl)cc3c2=O)ccc1Cl	8.92		6.92	86.3	
CS(=O)(=O)c1ccc2nc(Cl)n(-c3ccc(Cl)c(NS(=O)(=O)c4ccc([N+](=O)[O-])cc4F)c3)c(=O)c2c1			6.70	82.3	
O=c1c2ccncc2nc(Cl)n1-c1ccc(Cl)c(NS(=O)(=O)c2cc(F)ccc2F)c1	8.08		6.78	81.8	
Cc1nc2ccc(Cl)cc2c(=O)n1-c1ccc(Cl)c(N2Cc3ccccc3S2(=O)=O)c1	4.95	14.5			
O=c1c2ccncc2nc(Cl)n1-c1ccc(Cl)c(NS(=O)(=O)c2cc(F)c(F)cc2F)c1	8.12		6.80	81.8	
O=c1c2cc(Cl)ncc2nc(Cl)n1-c1ccc(Cl)c(NS(=O)(=O)c2ccc3c(c2)CCO3)c1			6.17		
O=c1c2cc(F)c(F)cc2nc(Cl)n1-c1ccc(Cl)c(NS(=O)(=O)c2ccccc2F)c1			5.89	55.3	
Cc1nc2ccc(Cl)cc2c(=O)n1-c1ccc(Cl)c(C(=O)O)c1		< 10			
Cc1nc2ccc(Cl)cc2c(=O)n1-c1ccc(Cl)c(NC(=O)c2ccccc2F)c1		< 10			
Cc1nc2ccc(Cl)cc2c(=O)n1NS(=O)(=O)c1ccc(Cl)cc1		< 10			
Cc1nc2ccc(Cl)cc2c(=O)n1CCCNS(=O)(=O)c1ccccc1F		< 10			
